Measurements taken from US11034715B2, “Ectonucleotidase inhibitors and methods of use thereof” (Calithera Biosciences, Inc., priority 2016, dated 2021).

Assays:
recombinant CD73 = recombinant CD73 (Homo sapiens (Human), UniProt P21589); experiment: Inhibition of the CD73 enzyme in vitro (soluble recombinant CD73, AMP, Malachite Green); assay type: biochemical; details: recombinant CD73 0.5 nM, AMP 50 μM, 30 minutes at room temperature
Protocol: The concentration of inorganic phosphate was determined using a phosphate standard curve.

[1] = target: endogenous, cell-bound CD73 on SK-MEL-28 cells (Homo sapiens (Human), UniProt P21589); experiment: Inhibition of endogenous, cell-bound CD73 enzyme activity in SK-MEL-28 cells (AMP, Malachite Green); assay type: cell-based; details: 100 μM AMP, 30 minutes at room temperature
Protocol: The day before the experiment, 5000 cells were plated per well in a 96-well plate. Cells were washed twice with 200 μL reaction buffer (20 mM HEPES, pH 7.4, 125 mM NaCl, 1 mM KCl, 2 mM MgCl2, 10 mM glucose) to remove residual inorganic phosphate. After washing, assays contained serial dilutions of test compounds and 100 μM of AMP in a total volume of 200 μL reaction buffer, with a final DMSO concentration ≤0.5%. After 30 minutes at room temperature, supernatant was removed from the cells. […] The concentration of inorganic phosphate was determined using a phosphate standard curve to determine IC50.

Chain of recombinant CD73 (P21589 27-547): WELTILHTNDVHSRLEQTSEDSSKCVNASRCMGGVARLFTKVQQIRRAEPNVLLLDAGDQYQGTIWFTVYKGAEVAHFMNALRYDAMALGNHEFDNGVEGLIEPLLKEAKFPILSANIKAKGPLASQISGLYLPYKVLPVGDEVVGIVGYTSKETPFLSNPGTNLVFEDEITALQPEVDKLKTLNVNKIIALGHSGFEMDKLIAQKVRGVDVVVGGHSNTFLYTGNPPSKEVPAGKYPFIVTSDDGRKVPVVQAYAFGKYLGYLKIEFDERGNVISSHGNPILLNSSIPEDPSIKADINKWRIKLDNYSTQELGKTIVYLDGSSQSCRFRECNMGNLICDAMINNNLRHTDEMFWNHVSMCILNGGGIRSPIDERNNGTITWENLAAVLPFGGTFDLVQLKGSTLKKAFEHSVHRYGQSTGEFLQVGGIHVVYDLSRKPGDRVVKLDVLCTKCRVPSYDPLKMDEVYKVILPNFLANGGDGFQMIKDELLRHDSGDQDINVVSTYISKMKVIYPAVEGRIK
Chain of endogenous, cell-bound CD73 on SK-MEL-28 cells (P21589 27-574): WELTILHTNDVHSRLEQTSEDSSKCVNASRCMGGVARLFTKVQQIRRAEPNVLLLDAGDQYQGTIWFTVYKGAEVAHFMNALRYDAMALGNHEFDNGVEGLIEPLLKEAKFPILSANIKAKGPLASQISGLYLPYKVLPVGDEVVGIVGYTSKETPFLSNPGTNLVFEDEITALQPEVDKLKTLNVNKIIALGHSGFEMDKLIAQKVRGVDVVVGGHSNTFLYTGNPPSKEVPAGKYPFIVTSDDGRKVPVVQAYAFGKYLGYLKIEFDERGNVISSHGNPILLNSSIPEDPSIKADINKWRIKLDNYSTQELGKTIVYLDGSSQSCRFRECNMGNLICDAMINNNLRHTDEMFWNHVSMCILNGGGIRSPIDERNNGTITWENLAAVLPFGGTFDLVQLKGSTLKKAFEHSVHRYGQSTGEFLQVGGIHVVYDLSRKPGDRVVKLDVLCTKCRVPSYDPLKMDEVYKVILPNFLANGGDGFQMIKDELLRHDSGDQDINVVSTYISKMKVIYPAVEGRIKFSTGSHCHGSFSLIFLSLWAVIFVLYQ

IC50 (recombinant CD73) [nM]	IC50 [1] [nM]	SMILES
1660	2560	O=C(O)C(Cc1ccccc1)(OC[C@H]1O[C@@H](n2cnc3c(O)nc(Cl)nc32)[C@@H](F)[C@@H]1O)C(=O)O [compound 74, 2-benzyl-2-(((2R,3R,4S,5R)-5-(2-chloro-6-hydroxy-9H-purin-9-yl)-4-fluoro-3-hydroxytetrahydrofuran-2-yl)methoxy)malonic acid]
141	182	NC(=O)c1ccc(CC(OC[C@H]2O[C@@H](n3cnc4c(N)nc(Cl)nc43)[C@@H](F)[C@@H]2O)(C(=O)O)C(=O)O)cc1 [compound 111]

Continued, compound first:

SMILES	IC50 (recombinant CD73) [nM]	IC50 [1] [nM]
Nc1nc(Cl)nc2c1ncn2[C@@H]1O[C@H](COC(Cc2ccc(F)c(F)c2F)(C(=O)O)C(=O)O)[C@@H](O)[C@@H]1F [compound 108]	104	246
CCOC(=O)C(Cc1ccc(OC(F)(F)F)cc1)(OC[C@H]1O[C@@H](n2cnc3c(N)nc(Cl)nc32)[C@@H](F)[C@@H]1O)C(=O)O (single isomer, unassigned) [compound 37]	718	598
Nc1nc(Cl)nc2c1ncn2[C@@H]1O[C@H](COC(Cc2ccc(Cl)c(Cl)c2)(C(=O)O)C(=O)O)[C@@H](O)[C@@H]1F [compound 128]	258	827
Nc1nc(Cl)nc2c1ncn2[C@@H]1O[C@H](COC(Cc2ccc(Cl)c(OC(F)(F)F)c2)(C(=O)O)C(=O)O)[C@@H](O)[C@@H]1F [compound 125]	242	836
